In patent US20230192705A1, “SHP2 INHIBITORS, COMPOSITIONS AND USES THEREOF” (Betta Pharmaceuticals Co., Ltd, priority 2020, published 2023):

Target: T1, SHP2 (Homo sapiens, UniProt Q06124)
T1 sequence (Q06124 1-593): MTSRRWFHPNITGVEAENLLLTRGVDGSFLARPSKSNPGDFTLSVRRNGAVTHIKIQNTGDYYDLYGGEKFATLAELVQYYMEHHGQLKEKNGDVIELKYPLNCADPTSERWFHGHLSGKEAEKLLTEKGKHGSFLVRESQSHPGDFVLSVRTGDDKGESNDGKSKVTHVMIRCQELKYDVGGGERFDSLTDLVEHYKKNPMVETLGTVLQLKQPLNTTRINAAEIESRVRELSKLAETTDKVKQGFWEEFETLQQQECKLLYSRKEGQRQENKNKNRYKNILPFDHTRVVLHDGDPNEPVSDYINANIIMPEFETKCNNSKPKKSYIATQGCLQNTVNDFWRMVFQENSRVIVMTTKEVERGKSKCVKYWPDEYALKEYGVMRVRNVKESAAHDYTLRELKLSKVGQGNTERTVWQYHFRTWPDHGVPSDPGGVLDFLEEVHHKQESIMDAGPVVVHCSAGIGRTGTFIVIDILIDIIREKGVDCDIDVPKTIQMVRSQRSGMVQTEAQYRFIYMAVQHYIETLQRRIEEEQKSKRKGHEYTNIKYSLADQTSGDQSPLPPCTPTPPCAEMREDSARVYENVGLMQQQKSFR
Assay: SHP2 allosteric inhibitor enzyme activity assay (DiFMUP fluorescence)
Type: biochemical
Conditions: class symbols
Excerpt: SHP2 is activated by the binding of a bis-tyrosyl-phosphorylated peptide to its Src homologous 2 (SH2) domain. This subsequent activation step leads to the release of the automatic inhibition interface of SHP2, which in turn activates the SHP2 protein tyrosine phosphatase (PTP) and can be used for substrate recognition and reaction catalysis. The catalytic activity of SHP2 was monitored using the alternative DiFMUP in a rapid fluorescence assay format.
Assay procedures are as follows:
(1) Compound Formulation:
The compound of the present invention (10 mM stock solution) was diluted to a suitable multiple with 100% DMSO and assay buffer, and the final test concentration of the compound of the present invention was 1 μM, 0.333 μM, 0.111 μM, 0.0370 μM, 0.0124 μM, 0.00412 μM, 0.00137 μM, 0.00046 μM, 0.00015 μM, 0.00 μM;
(2) Preparation of Enzyme Reaction Working Fluid:
SHP2 enzyme activity was performed using a final reaction volume of 50 μL and the following assay buffer conditions in 96-well black polystyrene plates (flat bottom, low flange, non-bonding surface) (Perki Elmer, Cat #6005270) at room temperature: 60 mM HEPES, 75 mM NaCl, 75 mM KCl, 0.05% BRIJ-35, 1 mM EDTA, 5 mM DTT.
(3) Enzyme Catalytic Reaction and Data Monitoring:
Compounds of the present invention were added to the corresponding 96-well plates, and no compound and enzyme were provided as blank test wells. SHP2 Activating Peptide (IRS1_pY1172 (dPEG8)pY1222) was placed on ice for melting, and 0.5 μM was added per well, then 0.2 ng SHP2 protein samples were added to corresponding well plates, and incubated at room temperature for 1 hour. Substrate DiFMUP (Invitrogen, Cat #D6567) was added to the reaction at room temperature for 1 hour. Fluorescence signals were monitored using an enzyme reader (Envision, Perki Elmer) using excitation wavelengths and emission wavelengths of 340 nm and 450 nm, respectively.
Inhibition %=[1−(Conversion_sample−Conversion_min)/(Conversion_max−Conversion_min)]*100% Calculation formula: […]
where: Conversion_sample is the mean reading of the sample wells; Conversion_min is the mean reading of blank control wells, representing the reading of the wells without enzyme; Conversion_max is the mean of positive control wells, representing the reading of the wells without inhibitor.
The dose-response curve is fitted with GraphPad Prism software and IC50 was calculated by the “log[inhibitor] vs. response-variable slope” program.

| SMILES | IC50 |
| --- | --- |
| N[C@@H]1c2ccccc2CC12CCN(c1nc3[nH]nc(C4=CCCc5ncc(C(F)(F)F)cc54)c3c(=O)[nH]1)CC2 [Example 138, (S)-6-(1-amino-1,3-dihydrospiro[indene-2,4′-piperidin]-1′-yl)-3-(3-(trifluoromethyl)-7,8-dihydroquinolin-5-yl)-1,5-dihydro-4H-pyrazolo[3,4-d]pyrimidin-4-one] | 20 to 60 nM |
| N[C@@H]1c2ccccc2CC12CCN(c1nc3[nH]nc(C4(c5ccccc5)CCOCC4)c3c(=O)[nH]1)CC2 [Example 100, (S)-6-(1-amino-1,3-dihydrospiro[indene-2,4′-piperidin]-1′-yl)-3-(4-phenyltetrahydro-2H-pyran-4-yl)-1,5-dihydro-4H-pyrazolo[3,4-d]pyrimidin-4-one] | 20 to 60 nM |
| Cc1ncccc1C1(c2n[nH]c3nc(N4CCC5(CC4)Cc4ccccc4[C@H]5N)[nH]c(=O)c23)CC1 [Example 89] | ≤ 20 nM |
| N[C@@H]1c2ccccc2CC12CCN(c1nc3[nH]nc(C4(c5cccc(-c6ccccc6)c5)CC4)c3c(=O)[nH]1)CC2 [Example 63, (S)-3-(1-([1,1′-biphenyl]-3-yl)cyclopropyl)-6-(1-amino-1,3-dihydrospiro[indene-2,4′-piperidin]-1′-yl)-1,5-dihydro-4H-pyrazolo[3,4-d]pyrimidin-4-one] | ≤ 20 nM |
| CN(C)c1nccc(C2(c3n[nH]c4nc(N5CCC6(CC5)Cc5ccccc5[C@H]6N)[nH]c(=O)c34)CC2)c1Cl [Example 61, (S)-6-(1-amino-1,3-dihydrospiro[indene-2,4′-piperidin]-1′-yl)-3-(1-(3-chloro-2-(dimethylamino)pyridin-4-yl)cyclopropyl)-1,5-dihydro-4H-pyrazolo[3,4-d]pyrimidin-4-one] | ≤ 20 nM |
| N[C@@H]1c2ccccc2CC12CCN(c1nc3[nH]nc(C4(c5ccncc5F)CC4)c3c(=O)[nH]1)CC2 [Example 58, (S)-6-(1-amino-1,3-dihydrospiro[indene-2,4′-piperidin]-1′-yl)-3-(1-(3-fluoropyridin-4-yl)cyclopropyl)-1,5-dihydro-4H-pyrazolo[3,4-d]pyrimidin-4-one] | ≤ 20 nM |
| N[C@@H]1c2ccccc2CC12CCN(c1nc3[nH]nc(C4(c5cccc(C6CCOCC6)c5)CC4)c3c(=O)[nH]1)CC2 [Example 40, (S)-6-(1-amino-1,3-dihydrospiro[indene-2,4′-piperidin]-1′-yl)-3-(1-(3-(tetrahydro-2H-pyran-4-yl)phenyl)cyclopropyl)-1,5-dihydro-4H-pyrazolo[3,4-d]pyrimidin-4-one] | ≤ 20 nM |
| Nc1ccccc1C1(c2n[nH]c3nc(N4CCC5(CC4)Cc4ccccc4[C@H]5N)[nH]c(=O)c23)CC1 [Example 22, (S)-6-(1-amino-1,3-dihydrospiro[indene-2,4′-piperidin]-1′-yl)-3-(1-(2-aminophenyl)cyclopropyl)-1,5-dihydro-4H-pyrazolo[3,4-d]pyrimidin-4-one] | ≤ 20 nM |
| Cn1cc(-c2cccc(C3(c4n[nH]c5nc(N6CCC7(CC6)Cc6ccccc6[C@H]7N)[nH]c(=O)c45)CC3)c2)cn1 [Example 36, (S)-6-(1-amino-1,3-dihydrospiro[indene-2,4′-piperidin]-1′-yl)-3-(1-(3-(1-methyl-1H-pyrazol-4-yl)phenyl)cyclopropyl)-1,5-dihydro-4H-pyrazolo[3,4-d]pyrimidin-4-one] | ≤ 20 nM |

The remaining lines, values ahead:

| IC50 | SMILES |
| --- | --- |
| 20 to 60 nM | N[C@@H]1COCC12CCN(c1nc3[nH]nc(C4(c5nc6ccccc6o5)CC4)c3c(=O)[nH]1)CC2 [Example 282, (S)-6-(4-amino-2-oxa-8-azaspiro[4.5]decan-8-yl)-3-(1-(benzo[d]oxazol-2-yl)cyclopropyl)-1,5-dihydro-4H-pyrazolo[3,4-d]pyrimidin-4-one] |
| ≤ 20 nM | CN1CC2(C=C(c3n[nH]c4nc(N5CCC6(CC5)Cc5ccccc5[C@H]6N)[nH]c(=O)c34)c3ccccc32)C1 [Example 171, (S)-6-(1-amino-1,3-dihydrospiro[indene-2,4′-piperidin]-1′-yl)-3-(1-methylspiro[azetidine-3,1′-inden]-3′-yl)-1,5-dihydro-4H-pyrazolo[3,4-d]pyrimidin-4-one] |
| 20 to 60 nM | C[C@@H]1OCC2(CCN(c3nc4[nH]nc(C5(c6cccc(F)c6)CC5)c4c(=O)[nH]3)CC2)[C@@H]1N [Example 293, 6-((3S,4S)-4-amino-3-methyl-2-oxa-8-azaspiro[4.5]decan-8-yl)-3-(1-(3-fluorophenyl)cyclopropyl)-1,5-dihydro-4H-pyrazolo[3,4-d]pyrimidin-4-one] |
| ≤ 20 nM | CN1c2ccccc2C(c2n[nH]c3nc(N4CCC5(CC4)Cc4ccccc4[C@H]5N)[nH]c(=O)c23)=CS1(=O)=O [Example 184, (S)-6-(1-amino-1,3-dihydrospiro[indene-2,4′-piperidin]-1′-yl)-3-(1-methyl-2,2-dioxido-1H-benzo[c][1,2]thiazin-4-yl)-1,5-dihydro-4H-pyrazolo[3,4-d]pyrimidin-4-one] |
| ≤ 20 nM | CC1(C)Cc2ncccc2C(c2n[nH]c3nc(N4CCC5(CC4)Cc4ccccc4[C@H]5N)[nH]c(=O)c23)=C1F [Example 190, (S)-6-(1-amino-1,3-dihydrospiro[indene-2,4′-piperidin]-1′-yl)-3-(6-fluoro-7,7-dimethyl-7,8-dihydroquinolin-5-yl)-1,5-dihydro-4H-pyrazolo[3,4-d]pyrimidin-4-one] |
| ≤ 20 nM | N[C@@H]1c2ccccc2CC12CCN(c1nc3[nH]nc(C4=CCc5ccccc54)c3c(=O)[nH]1)CC2 [Example 172, (S)-6-(1-amino-1,3-dihydrospiro[indene-2,4′-piperidin]-1′-yl)-3-(1H-inden-3-yl)-1,5-dihydro-4H-pyrazolo[3,4-d]pyrimidin-4-one] |
| ≤ 20 nM | CC1(C)Cc2nc(C(F)(F)F)ccc2C(c2n[nH]c3nc(N4CCC5(CC4)Cc4ccccc4[C@H]5N)[nH]c(=O)c23)=C1F [Example 189, (S)-6-(1-amino-1,3-dihydrospiro[indene-2,4′-piperidin]-1′-yl)-3-(6-fluoro-7,7-dimethyl-2-(trifluoromethyl)-7,8-dihydroquinolin-5-yl)-1,5-dihydro-4H-pyrazolo[3,4-d]pyrimidin-4-one] |
| > 60 nM | C[C@@H]1OCC2(CCN(c3ncc(C4(c5ccccc5)CC4)nc3C(N)=O)CC2)[C@@H]1N [Example 259, 3-((3S,4S)-4-amino-3-methyl-2-oxa-8-azaspiro[4.5]decan-8-yl)-6-(1-phenylcyclopropyl)pyrazine-2-carboxamide] |
| ≤ 20 nM | N[C@@H]1c2ccccc2CC12CCN(c1nc3[nH]nc(C4=CS(=O)(=O)Cc5ccccc54)c3c(=O)[nH]1)CC2 [Example 182, (S)-6-(1-amino-1,3-dihydrospiro[indene-2,4′-piperidin]-1′-yl)-3-(2,2-dioxido-1H-isothiochromen-4-yl)-1,5-dihydro-4H-pyrazolo[3,4-d]pyrimidin-4-one] |
| ≤ 20 nM | N[C@@H]1c2ccccc2CC12CCN(c1nc3[nH]nc(C4(c5ccncc5)CC4)c3c(=O)[nH]1)CC2 [Example 219, (S)-6-(1-amino-1,3-dihydrospiro[indene-2,4′-piperidin]-1′-yl)-3-(1-(pyridin-4-yl)cyclopropyl)-1,5-dihydro-4H-pyrazolo[3,4-d]pyrimidin-4-one] |
| 20 to 60 nM | C[C@@H]1OCC2(CCN(c3nc4[nH]nc(C5(c6ccnc(N)c6Cl)CC5)c4c(=O)[nH]3)CC2)[C@@H]1N [Example 291, 3-(1-(2-amino-3-chloropyridin-4-yl)cyclopropyl)-6-((3S,4S)-4-amino-3-methyl-2-oxa-8-azaspiro[4.5]decan-8-yl)-1,5-dihydro-4H-pyrazolo[3,4-d]pyrimidin-4-one] |
